From ChEMBL document CHEMBL1136849, “Anthranilimide based glycogen phosphorylase inhibitors for the treatment of type 2 diabetes. Part 3: X-ray crystallographic characterization, core and urea optimization and in vivo efficacy” (Bioorg Med Chem Lett, 2009)

Assays:
[1] = target: T1, Glycogen phosphorylase, liver form (Homo sapiens, UniProt P06737); test: Inhibition of human liver glycogen phosphorylase a by coupled kinetic fluorescent intensity assay
T1 sequence (P06737 whole entry): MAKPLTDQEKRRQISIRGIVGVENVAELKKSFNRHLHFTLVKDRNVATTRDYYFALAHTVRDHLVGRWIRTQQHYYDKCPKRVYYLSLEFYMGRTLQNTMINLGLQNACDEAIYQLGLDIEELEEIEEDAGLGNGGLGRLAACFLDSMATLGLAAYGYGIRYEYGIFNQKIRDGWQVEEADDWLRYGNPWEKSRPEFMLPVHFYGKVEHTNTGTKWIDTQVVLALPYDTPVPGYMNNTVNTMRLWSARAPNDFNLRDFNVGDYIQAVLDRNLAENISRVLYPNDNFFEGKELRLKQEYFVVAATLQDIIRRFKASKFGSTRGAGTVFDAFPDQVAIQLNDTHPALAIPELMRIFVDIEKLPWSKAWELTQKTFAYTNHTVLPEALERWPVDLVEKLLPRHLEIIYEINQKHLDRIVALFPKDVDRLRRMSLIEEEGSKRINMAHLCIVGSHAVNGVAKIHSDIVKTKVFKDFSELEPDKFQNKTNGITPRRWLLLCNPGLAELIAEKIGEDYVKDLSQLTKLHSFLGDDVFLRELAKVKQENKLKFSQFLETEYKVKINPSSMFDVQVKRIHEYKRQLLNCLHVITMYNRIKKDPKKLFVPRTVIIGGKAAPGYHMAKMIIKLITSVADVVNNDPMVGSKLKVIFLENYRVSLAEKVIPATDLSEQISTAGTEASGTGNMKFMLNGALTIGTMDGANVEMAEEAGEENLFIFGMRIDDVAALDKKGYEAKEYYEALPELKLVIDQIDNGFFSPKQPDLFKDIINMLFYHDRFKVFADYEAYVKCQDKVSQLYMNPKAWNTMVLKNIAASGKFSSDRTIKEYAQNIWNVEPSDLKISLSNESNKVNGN

[2] = target: T1, Glycogen phosphorylase, liver form; test: Inhibition of human glycogen phosphorylase a in HepG2 cells assessed as inhibition of forskolin-stimulated glycogenolysis; type: cell-based
[3] = system: Rattus norvegicus; test: Reduction of glucagon-induced glucose AUC in CD rat at 5 mg/kg, po preincubated for 2 hrs before glucagon challenge; type: functional; set-up: scale not given: the % may be the effect or the level left
[4] = system: Rattus norvegicus; test: Reduction of glucagon-induced glucose AUC in CD rat at 2 mg/kg, po preincubated for 2 hrs before glucagon challenge; type: functional; set-up: scale not given: the % may be the effect or the level left
[5] = system: Mus musculus; test: Antidiabetic effect in ob/ob B6.V-lep[ob]/J mouse assessed as decrease in blood glucose level at 15 mg/kg, po after 3 hrs; type: functional
[6] = Clearance in rat at 1 mg/kg, iv and 5 mg/kg, po; type: ADME, organism-based; conditions: in vivo
[7] = Half life in rat at 1 mg/kg, iv and 5 mg/kg, po; type: ADME, organism-based; conditions: in vivo
[8] = Bioavailability in rat at 1 mg/kg, iv and 5 mg/kg, po; type: ADME, organism-based; conditions: in vivo
[9] = Cmax in rat at 5 mg/kg, po; type: ADME, organism-based; set-up: dose 5 mg/kg, route oral; conditions: in vivo

IC50 [1] [nM] | IC50 [2] [nM] | SMILES | further results
7 | 181 | CCCc1cc(C)c(NC(=O)Nc2cc(-c3ccc(F)c(F)c3)ccc2C(=O)N[C@H](C(=O)O)[C@@H](C)OC(C)(C)C)c(C)c1 | –
4 | 156 | CCCc1cc(C)c(NC(=O)Nc2cc(-c3cccc(F)c3)ccc2C(=O)N[C@H](C(=O)O)[C@@H](C)OC(C)(C)C)c(C)c1 | –
– | 145 | Cc1cc(CC2CC2)cc(C)c1NC(=O)Nc1cc(-c2cccc(F)c2)ccc1C(=O)N[C@H](C(=O)O)[C@@H](C)OC(C)(C)C | Activity [3]: 65%; Activity [4]: 62%; Activity [5]: 103 mg/dL; clearance [6]: 15 mL/min/kg; half-life [7]: 2.3 h; bioavailability [8]: 27%; Cmax [9]: 536 ng/mL
4 | 133 | Cc1cc(CC2CC2)cc(C)c1NC(=O)Nc1cc(F)ccc1C(=O)N[C@H](C(=O)O)[C@@H](C)OC(C)(C)C | Activity [3]: 36%; Activity [4]: 22%
3 | 34 | COc1ccc(-c2ccc(C(=O)N[C@H](C(=O)O)[C@@H](C)OC(C)(C)C)c(NC(=O)Nc3c(C)cc(C)cc3C)c2)cc1 | –
10 | 126 | Cc1cc(C)c(NC(=O)Nc2cc(-c3ccccc3)ccc2C(=O)N[C@H](C(=O)O)[C@@H](C)OC(C)(C)C)c(C)c1 | –
7 | 88 | Cc1cc(C)c(NC(=O)Nc2cc(-c3ccc(F)cc3)ccc2C(=O)N[C@H](C(=O)O)[C@@H](C)OC(C)(C)C)c(C)c1 | –
10 | 147 | CCCc1cc(C)c(NC(=O)Nc2cc(F)ccc2C(=O)N[C@H](C(=O)O)[C@@H](C)OC(C)(C)C)c(C)c1 | –
– | – | Cc1cc(C)c(NC(=O)Nc2cc3ccccc3cc2C(=O)N[C@H](C(=O)O)[C@@H](C)OC(C)(C)C)c(C)c1 | Activity [3]: 25%
13 | 384 | Cc1cc(CC2CC2)cc(C)c1NC(=O)Nc1cc(F)ccc1C(=O)N[C@H](C(=O)O)C1CCCCC1 | –
19 | 229 | CCCc1cc(C)c(NC(=O)Nc2cc(F)ccc2C(=O)N[C@H](C(=O)O)C2CCCCC2)c(C)c1 | –
87 | 513 | CCc1cc(C)c(NC(=O)Nc2cc(F)ccc2C(=O)N[C@H](C(=O)O)C2CCCCC2)c(C)c1 | –
143 | 1030 | Cc1cc(C)c(NC(=O)Nc2cc(F)ccc2C(=O)N[C@H](C(=O)O)C2CCCCC2)c(C)c1 | –
1070 | 8260 | Cc1cccc(C)c1NC(=O)Nc1cc(F)ccc1C(=O)N[C@H](C(=O)O)C1CCCCC1 | –
49 | 716 | CCCCc1cc(C)c(NC(=O)Nc2cc(F)ccc2C(=O)N[C@H](C(=O)O)C2CCCCC2)c(C)c1 | –
15 | 104 | Cc1cc(C)c(NC(=O)Nc2cc(-c3cccc(F)c3)ccc2C(=O)N[C@H](C(=O)O)[C@@H](C)OC(C)(C)C)c(C)c1 | Activity [3]: 32%; Activity [4]: 10%
8 | 109 | COc1cccc(-c2ccc(C(=O)N[C@H](C(=O)O)[C@@H](C)OC(C)(C)C)c(NC(=O)Nc3c(C)cc(C)cc3C)c2)c1 | –
– | 135 | CCCc1cc(C)c(NC(=O)Nc2cc(-c3ccc(OC)cc3)ccc2C(=O)N[C@H](C(=O)O)[C@@H](C)OC(C)(C)C)c(C)c1 | –
13 | 171 | Cc1cc(C)c(NC(=O)Nc2cc(-c3ccc(F)c(F)c3)ccc2C(=O)N[C@H](C(=O)O)[C@@H](C)OC(C)(C)C)c(C)c1 | –
506 | 1820 | Cc1cc(C)c(NC(=O)Nc2cc(F)ccc2C(=O)N[C@H](C(=O)O)[C@@H](C)OC(C)(C)C)c(C)c1 | –
542 | 1680 | Cc1cc(C)c(NC(=O)Nc2ccccc2C(=O)N[C@H](C(=O)O)[C@@H](C)OC(C)(C)C)c(C)c1 | –
28 | 353 | COc1ccccc1-c1ccc(C(=O)N[C@H](C(=O)O)[C@@H](C)OC(C)(C)C)c(NC(=O)Nc2c(C)cc(C)cc2C)c1 | –
